According to ChEMBL document CHEMBL1201862, “PubChem BioAssay data set” (2004):
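Cultured in 96-well plates, cells were exposed to test compound for 48 hours across five concentrations. Here, GI50 denotes the concentration required for 50% inhibition of growth.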 Calls of active or inactive are those of the source. Rule as the data show it: active = GI50 up to about 1.1 µM and inactive = higher.

Tests used:
Assay in all cases: NCI anticancer screen, dose series, 48 h
786-0 = system: 786-0
A549 = system: A549
ACHN = system: ACHN
BT-549 = system: BT-549
CCRF-CEM = system: CCRF-CEM
COLO 205 = system: COLO 205
DU-145 = system: DU-145
EKVX = system: EKVX
HCC 2998 = system: HCC 2998
HCT-116 = system: HCT-116
HCT-15 = system: HCT-15
HL-60 = system: HL-60
HOP-62 = system: HOP-62
HOP-92 = system: HOP-92
HT-29 = system: HT-29
Hs-578T = system: Hs-578T
IGROV-1 = system: IGROV-1
K562 = system: K562
KM12 = system: KM12
M14 = system: M14
MCF7 = system: MCF7
MDA-MB-231 = system: MDA-MB-231
MDA-MB-435 = system: MDA-MB-435
MDA-N = system: MDA-N
MOLT-4 = system: MOLT-4
Malme-3M = system: Malme-3M
NCI-H226 = system: NCI-H226
NCI-H23 = system: NCI-H23
NCI-H460 = system: NCI-H460
NCI-H522 = system: NCI-H522
NCI/ADR-RES = system: NCI/ADR-RES
OVCAR-3 = system: OVCAR-3
OVCAR-4 = system: OVCAR-4
OVCAR-5 = system: OVCAR-5
OVCAR-8 = system: OVCAR-8
PC-3 = system: PC-3
RPMI-8226 = system: RPMI-8226
RXF 393 = system: RXF 393
SF-268 = system: SF-268
SF-295 = system: SF-295
SF-539 = system: SF-539
SK-MEL-28 = system: SK-MEL-28
SK-MEL-5 = system: SK-MEL-5
SK-OV-3 = system: SK-OV-3
SN12C = system: SN12C
SNB-19 = system: SNB-19
SNB-75 = system: SNB-75
SR = system: SR
SW-620 = system: SW-620
T47D = system: T47D
TK-10 = system: TK-10
U-251 = system: U-251
UACC-257 = system: UACC-257
UACC-62 = system: UACC-62

**Q.** With `CCNC1=C(NC(=O)CC)C(=O)c2ccccc2C1=O` as the compound, how does the GI50 (786-0) read?
**A.** > 100 µM (inactive)

**Q.** And the GI50 (A549)?
**A.** > 100 µM (inactive)

**Q.** And the GI50 (ACHN)?
**A.** > 100 µM (inactive)

**Q.** What about the GI50 (BT-549) of the same compound?
**A.** > 100 µM (inactive)

**Q.** What about the GI50 (CCRF-CEM) of the same compound?
**A.** 56 µM (inactive)

**Q.** What about the GI50 (COLO 205) of the same compound?
**A.** 46.5 µM (inactive)

**Q.** And the GI50 (DU-145)?
**A.** > 100 µM (inactive)

**Q.** And the GI50 (EKVX)?
**A.** > 100 µM (inactive)

**Q.** What about the GI50 (HCC 2998) of the same compound?
**A.** 73.1 µM (inactive)

**Q.** What about the GI50 (HCT-116) of the same compound?
**A.** 36.7 µM (inactive)

**Q.** And the GI50 (HCT-15)?
**A.** 64.3 µM

**Q.** What about the GI50 (HL-60) of the same compound?
**A.** 74.8 µM (inactive)

**Q.** And the GI50 (HOP-62)?
**A.** > 100 µM (inactive)

**Q.** What about the GI50 (HOP-92) of the same compound?
**A.** > 100 µM (inactive)

**Q.** And the GI50 (HT-29)?
**A.** 34.8 µM (inactive)

**Q.** And the GI50 (Hs-578T)?
**A.** > 100 µM (inactive)

**Q.** What about the GI50 (IGROV-1) of the same compound?
**A.** > 100 µM (inactive)

**Q.** And the GI50 (K562)?
**A.** > 100 µM (inactive)

**Q.** What about the GI50 (KM12) of the same compound?
**A.** > 100 µM (inactive)

**Q.** And the GI50 (M14)?
**A.** 31.7 µM (inactive)

**Q.** What about the GI50 (MCF7) of the same compound?
**A.** > 100 µM (inactive)

**Q.** And the GI50 (MDA-MB-231)?
**A.** > 100 µM (inactive)

**Q.** What about the GI50 (MDA-MB-435) of the same compound?
**A.** > 10 µM (inactive)

**Q.** And the GI50 (MDA-N)?
**A.** > 100 µM (inactive)

**Q.** And the GI50 (MOLT-4)?
**A.** > 100 µM (inactive)

**Q.** What about the GI50 (Malme-3M) of the same compound?
**A.** 22.9 µM (inactive)

**Q.** What about the GI50 (NCI-H226) of the same compound?
**A.** > 100 µM (inactive)

**Q.** And the GI50 (NCI-H23)?
**A.** 70.8 µM (inactive)

**Q.** What about the GI50 (NCI-H460) of the same compound?
**A.** > 100 µM (inactive)

**Q.** And the GI50 (NCI-H522)?
**A.** 46.1 µM (inactive)

**Q.** What about the GI50 (NCI/ADR-RES) of the same compound?
**A.** 58.7 µM (inactive)

**Q.** And the GI50 (OVCAR-3)?
**A.** 32.1 µM (inactive)

**Q.** And the GI50 (OVCAR-4)?
**A.** 87.3 µM (inactive)

**Q.** And the GI50 (OVCAR-5)?
**A.** > 100 µM (inactive)

**Q.** What about the GI50 (OVCAR-8) of the same compound?
**A.** 79.1 µM (inactive)

**Q.** And the GI50 (PC-3)?
**A.** 42.6 µM (inactive)

**Q.** What about the GI50 (RPMI-8226) of the same compound?
**A.** > 100 µM (inactive)

**Q.** What about the GI50 (RXF 393) of the same compound?
**A.** 48.1 µM (inactive)

**Q.** And the GI50 (SF-268)?
**A.** > 100 µM (inactive)

**Q.** And the GI50 (SF-295)?
**A.** > 100 µM (inactive)

**Q.** What about the GI50 (SF-539) of the same compound?
**A.** > 100 µM (inactive)

**Q.** What about the GI50 (SK-MEL-28) of the same compound?
**A.** > 100 µM (inactive)

**Q.** What about the GI50 (SK-MEL-5) of the same compound?
**A.** 54.1 µM (inactive)

**Q.** What about the GI50 (SK-OV-3) of the same compound?
**A.** > 100 µM (inactive)

**Q.** And the GI50 (SN12C)?
**A.** 73.3 µM (inactive)

**Q.** What about the GI50 (SNB-19) of the same compound?
**A.** > 100 µM (inactive)

**Q.** And the GI50 (SNB-75)?
**A.** > 100 µM (inactive)

**Q.** What about the GI50 (SR) of the same compound?
**A.** > 100 µM (inactive)

**Q.** What about the GI50 (SW-620) of the same compound?
**A.** 60.4 µM (inactive)

**Q.** And the GI50 (T47D)?
**A.** > 100 µM (inactive)

**Q.** And the GI50 (TK-10)?
**A.** > 100 µM (inactive)

**Q.** What about the GI50 (U-251) of the same compound?
**A.** > 100 µM (inactive)

**Q.** What about the GI50 (UACC-257) of the same compound?
**A.** 30.2 µM (inactive)

**Q.** And the GI50 (UACC-62)?
**A.** 74.5 µM (inactive)
